Activity calls are given as the source filed them. Unless noted, no cut-off for these calls is given here.
Tested on: Escherichia coli
Test: Antimicrobial activity against Escherichia coli MTCC 723 at 500 ug/ml after 24 hrs by cup plate method
Assay type: functional
Details: MTCC 723, 24 h, read-out: IZ

Compound | zone of inhibition at 500 µg/mL
Cc1ccc(C2=CC(c3c(-c4ccccc4)[nH]c4ccc(Cl)cc34)c3c(nc[nH]c3=O)O2)cc1 (configuration not stated) | 3 mm

Tested on: Pseudomonas aeruginosa
Test: Antimicrobial activity against Pseudomonas aeruginosa MTCC 1688 at 750 ug/ml after 24 hrs by cup plate method
Assay type: functional
Details: MTCC 1688, 24 h, read-out: IZ

Compound | zone of inhibition at 750 µg/mL
Cc1ccc(C2=CC(c3c(-c4ccccc4)[nH]c4ccc(Cl)cc34)c3c(nc[nH]c3=O)O2)cc1 (configuration not stated) | 8 mm

Tested on: Escherichia coli
Test: Antimicrobial activity against Escherichia coli MTCC 723 at 1000 ug/ml after 24 hrs by cup plate method
Assay type: functional
Details: MTCC 723, 24 h, read-out: IZ

Compound | zone of inhibition at 1000 µg/mL
Cc1ccc(C2=CC(c3c(-c4ccccc4)[nH]c4ccc(Cl)cc34)c3c(nc[nH]c3=O)O2)cc1 (configuration not stated) | 3 mm

Tested on: Aspergillus flavus
Test: Antimicrobial activity against Aspergillus flavus MTCC 1973 at 1000 ug/ml after 72 hrs by cup plate method
Assay type: functional
Details: MTCC 1973, 72 h, read-out: IZ

Compound | zone of inhibition at 1000 µg/mL
Cc1ccc(C2=CC(c3c(-c4ccccc4)[nH]c4ccc(Cl)cc34)c3c(nc[nH]c3=O)O2)cc1 (configuration not stated) | 6 mm

Tested on: Aspergillus flavus
Test: Antimicrobial activity against Aspergillus flavus MTCC 1973 at 500 ug/ml after 72 hrs by cup plate method
Assay type: functional
Details: MTCC 1973, 72 h, read-out: IZ

Compound | zone of inhibition at 500 µg/mL
Cc1ccc(C2=CC(c3c(-c4ccccc4)[nH]c4ccc(Cl)cc34)c3c(nc[nH]c3=O)O2)cc1 (configuration not stated) | 6 mm

Tested on: Aspergillus niger
Test: Antimicrobial activity against Aspergillus niger MTCC 281 at 500 ug/ml after 72 hrs by cup plate method
Assay type: functional
Details: MTCC 281, 72 h, read-out: IZ

Compound | zone of inhibition at 500 µg/mL
Cc1ccc(C2=CC(c3c(-c4ccccc4)[nH]c4ccc(Cl)cc34)c3c(nc[nH]c3=O)O2)cc1 (configuration not stated) | 8 mm

Tested on: Aspergillus oryzae
Test: Antimicrobial activity against Aspergillus oryzae MTCC 3567 at 750 ug/ml after 72 hrs by cup plate method
Assay type: functional
Details: MTCC 3567, 72 h, read-out: IZ

Compound | zone of inhibition at 750 µg/mL
Cc1ccc(C2=CC(c3c(-c4ccccc4)[nH]c4ccc(Cl)cc34)c3c(nc[nH]c3=O)O2)cc1 (configuration not stated) | 13 mm

Tested on: Aspergillus niger
Test: Antimicrobial activity against Aspergillus niger MTCC 281 at 750 ug/ml after 72 hrs by cup plate method
Assay type: functional
Details: MTCC 281, 72 h, read-out: IZ

Compound | zone of inhibition at 750 µg/mL
Cc1ccc(C2=CC(c3c(-c4ccccc4)[nH]c4ccc(Cl)cc34)c3c(nc[nH]c3=O)O2)cc1 (configuration not stated) | 8 mm

Tested on: Klebsiella pneumoniae
Test: Antimicrobial activity against Klebsiella pneumoniae NCTC 13368 at 750 ug/ml after 24 hrs by cup plate method
Assay type: functional
Details: NCTC 13368, 24 h, read-out: IZ

Compound | zone of inhibition at 750 µg/mL
Cc1ccc(C2=CC(c3c(-c4ccccc4)[nH]c4ccc(Cl)cc34)c3c(nc[nH]c3=O)O2)cc1 (configuration not stated) | 9 mm

Tested on: Aspergillus terreus
Test: Antimicrobial activity against Aspergillus terreus MTCC 1782 at 750 ug/ml after 72 hrs by cup plate method
Assay type: functional
Details: MTCC 1782, 72 h, read-out: IZ

Compound | zone of inhibition at 750 µg/mL
Cc1ccc(C2=CC(c3c(-c4ccccc4)[nH]c4ccc(Cl)cc34)c3c(nc[nH]c3=O)O2)cc1 (configuration not stated) | 8 mm

Tested on: Aspergillus oryzae
Test: Antimicrobial activity against Aspergillus oryzae MTCC 3567 at 500 ug/ml after 72 hrs by cup plate method
Assay type: functional
Details: MTCC 3567, 72 h, read-out: IZ

Compound | zone of inhibition at 500 µg/mL
Cc1ccc(C2=CC(c3c(-c4ccccc4)[nH]c4ccc(Cl)cc34)c3c(nc[nH]c3=O)O2)cc1 (configuration not stated) | 12 mm

Tested on: Staphylococcus aureus
Test: Antimicrobial activity against Staphylococcus aureus ATCC 29513 at 1000 ug/ml after 24 hrs by cup plate method
Assay type: functional
Details: ATCC 29513, 24 h, read-out: IZ

Compound | zone of inhibition at 1000 µg/mL
Cc1ccc(C2=CC(c3c(-c4ccccc4)[nH]c4ccc(Cl)cc34)c3c(nc[nH]c3=O)O2)cc1 (configuration not stated) | 3 mm

Tested on: Escherichia coli
Test: Antimicrobial activity against Escherichia coli MTCC 723 at 750 ug/ml after 24 hrs by cup plate method
Assay type: functional
Details: MTCC 723, 24 h, read-out: IZ

Compound | zone of inhibition at 750 µg/mL
Cc1ccc(C2=CC(c3c(-c4ccccc4)[nH]c4ccc(Cl)cc34)c3c(nc[nH]c3=O)O2)cc1 (configuration not stated) | 3 mm

Tested on: Aspergillus oryzae
Test: Antimicrobial activity against Aspergillus oryzae MTCC 3567 at 1000 ug/ml after 72 hrs by cup plate method
Assay type: functional
Details: MTCC 3567, 72 h, read-out: IZ

Compound | zone of inhibition at 1000 µg/mL
Cc1ccc(C2=CC(c3c(-c4ccccc4)[nH]c4ccc(Cl)cc34)c3c(nc[nH]c3=O)O2)cc1 (configuration not stated) | 13 mm

Tested on: Pseudomonas aeruginosa
Test: Antimicrobial activity against Pseudomonas aeruginosa MTCC 1688 at 500 ug/ml after 24 hrs by cup plate method
Assay type: functional
Details: MTCC 1688, 24 h, read-out: IZ

Compound | zone of inhibition at 500 µg/mL
Cc1ccc(C2=CC(c3c(-c4ccccc4)[nH]c4ccc(Cl)cc34)c3c(nc[nH]c3=O)O2)cc1 (configuration not stated) | 8 mm

Tested on: not listed separately
Test: Antioxidant activity assessed as metal chelating activity by measuring inhibition of ferrozine-Fe2+ complex formation at 25 to 100 ug/ml
Assay type: functional
Details: not given

Compound | Activity
Cc1ccc(C2=CC(c3c(-c4ccccc4)[nH]c4ccc(Cl)cc34)c3c(nc[nH]c3=O)O2)cc1 (configuration not stated) | Active

Tested on: Staphylococcus aureus
Test: Antimicrobial activity against Staphylococcus aureus ATCC 29513 at 500 ug/ml after 24 hrs by cup plate method
Assay type: functional
Details: ATCC 29513, 24 h, read-out: IZ

Compound | zone of inhibition at 500 µg/mL
Cc1ccc(C2=CC(c3c(-c4ccccc4)[nH]c4ccc(Cl)cc34)c3c(nc[nH]c3=O)O2)cc1 (configuration not stated) | 5 mm

Tested on: Aspergillus niger
Test: Antimicrobial activity against Aspergillus niger MTCC 281 at 1000 ug/ml after 72 hrs by cup plate method
Assay type: functional
Details: MTCC 281, 72 h, read-out: IZ

Compound | zone of inhibition at 1000 µg/mL
Cc1ccc(C2=CC(c3c(-c4ccccc4)[nH]c4ccc(Cl)cc34)c3c(nc[nH]c3=O)O2)cc1 (configuration not stated) | 8 mm

Tested on: Klebsiella pneumoniae
Test: Antimicrobial activity against Klebsiella pneumoniae NCTC 13368 at 1000 ug/ml after 24 hrs by cup plate method
Assay type: functional
Details: NCTC 13368, 24 h, read-out: IZ

Compound | zone of inhibition at 1000 µg/mL
Cc1ccc(C2=CC(c3c(-c4ccccc4)[nH]c4ccc(Cl)cc34)c3c(nc[nH]c3=O)O2)cc1 (configuration not stated) | 9 mm

Tested on: Aspergillus terreus
Test: Antimicrobial activity against Aspergillus terreus MTCC 1782 at 500 ug/ml after 72 hrs by cup plate method
Assay type: functional
Details: MTCC 1782, 72 h, read-out: IZ

Compound | zone of inhibition at 500 µg/mL
Cc1ccc(C2=CC(c3c(-c4ccccc4)[nH]c4ccc(Cl)cc34)c3c(nc[nH]c3=O)O2)cc1 (configuration not stated) | 8 mm

Tested on: not listed separately
Test: Antioxidant activity assessed as ferric ion reducing activity at 25 to 100 ug/ml by FRAP assay
Assay type: functional
Details: not given

Compound | Activity
Cc1ccc(C2=CC(c3c(-c4ccccc4)[nH]c4ccc(Cl)cc34)c3c(nc[nH]c3=O)O2)cc1 (configuration not stated) | Active

Tested on: Klebsiella pneumoniae
Test: Antimicrobial activity against Klebsiella pneumoniae NCTC 13368 at 500 ug/ml after 24 hrs by cup plate method
Assay type: functional
Details: NCTC 13368, 24 h, read-out: IZ

Compound | zone of inhibition at 500 µg/mL
Cc1ccc(C2=CC(c3c(-c4ccccc4)[nH]c4ccc(Cl)cc34)c3c(nc[nH]c3=O)O2)cc1 (configuration not stated) | 9 mm

Tested on: Staphylococcus aureus
Test: Antimicrobial activity against Staphylococcus aureus ATCC 29513 at 750 ug/ml after 24 hrs by cup plate method
Assay type: functional
Details: ATCC 29513, 24 h, read-out: IZ

Compound | zone of inhibition at 750 µg/mL
Cc1ccc(C2=CC(c3c(-c4ccccc4)[nH]c4ccc(Cl)cc34)c3c(nc[nH]c3=O)O2)cc1 (configuration not stated) | 3 mm

Tested on: Aspergillus terreus
Test: Antimicrobial activity against Aspergillus terreus MTCC 1782 at 1000 ug/ml after 72 hrs by cup plate method
Assay type: functional
Details: MTCC 1782, 72 h, read-out: IZ

Compound | zone of inhibition at 1000 µg/mL
Cc1ccc(C2=CC(c3c(-c4ccccc4)[nH]c4ccc(Cl)cc34)c3c(nc[nH]c3=O)O2)cc1 (configuration not stated) | 8 mm

Tested on: not listed separately
Test: Antioxidant activity assessed as ferric ion reducing activity at 25 to 75 ug/ml by FRAP assay
Assay type: functional
Details: not given

Compound | Activity
Cc1ccc(C2=CC(c3c(-c4ccccc4)[nH]c4ccc(Cl)cc34)c3c(nc[nH]c3=O)O2)cc1 (configuration not stated) | Active

Tested on: Pseudomonas aeruginosa
Test: Antimicrobial activity against Pseudomonas aeruginosa MTCC 1688 at 1000 ug/ml after 24 hrs by cup plate method
Assay type: functional
Details: MTCC 1688, 24 h, read-out: IZ

Compound | zone of inhibition at 1000 µg/mL
Cc1ccc(C2=CC(c3c(-c4ccccc4)[nH]c4ccc(Cl)cc34)c3c(nc[nH]c3=O)O2)cc1 (configuration not stated) | 8 mm

Tested on: Aspergillus flavus
Test: Antimicrobial activity against Aspergillus flavus MTCC 1973 at 750 ug/ml after 72 hrs by cup plate method
Assay type: functional
Details: MTCC 1973, 72 h, read-out: IZ

Compound | zone of inhibition at 750 µg/mL
Cc1ccc(C2=CC(c3c(-c4ccccc4)[nH]c4ccc(Cl)cc34)c3c(nc[nH]c3=O)O2)cc1 (configuration not stated) | 6 mm

From ChEMBL document CHEMBL2346657, “Synthesis of novel 2-amino-4-(5'-substituted 2'-phenyl-1H-indol-3'-yl)-6-aryl-4H-pyran-3-carbonitrile derivatives as antimicrobial and antioxidant agents” (2013)
